Laboratory results reported in the supplement of paper PMC10307832.

Columns and labels:
Test in all cases: relative viability (nuclei count vs DMSO), 5 days (fraction); higher = more cells survive
CX-5461 + Trametinib = compound: Cc1cnc(CNC(=O)c2c(=O)c3ccc(N4CCCN(C)CC4)nc3n3c2sc2ccccc23)cn1 [CX-5461] + CC(=O)Nc1cccc(-n2c(=O)n(C3CC3)c(=O)c3c(Nc4ccc(I)cc4F)n(C)c(=O)c(C)c32)c1 [Trametinib] (partner 0.02 µM)
Summary of the method: (§1)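 Lung cancer cell lines were seeded in 1536-well plates and dosed by pin tool the next day, with either a single drug or a fixed anchor-drug dose combined with five library-drug doses (not always all listed) spaced in √10 steps. Five days later, one step fixed the cells and stained their nuclei (final 0.05% Triton X-100, 1% formaldehyde, 1 ug/ml Hoechst), and nuclei were counted on 4× images. Relative viability is the nuclei count in treated wells divided by the count in vehicle wells, and each value is the median of duplicate plates.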

CX-5461 + Palbociclib = compound: Cc1cnc(CNC(=O)c2c(=O)c3ccc(N4CCCN(C)CC4)nc3n3c2sc2ccccc23)cn1 [CX-5461] + CC(=O)c1c(C)c2cnc(Nc3ccc(N4CCNCC4)cn3)nc2n(C2CCCC2)c1=O [Palbociclib] (partner 0.5 µM)
Summary of the method: as §1

CX-5461 + Navitoclax = compound: Cc1cnc(CNC(=O)c2c(=O)c3ccc(N4CCCN(C)CC4)nc3n3c2sc2ccccc23)cn1 [CX-5461] + CC1(C)CCC(c2ccc(Cl)cc2)=C(CN2CCN(c3ccc(C(=O)NS(=O)(=O)c4ccc(N[C@H](CCN5CCOCC5)CSc5ccccc5)c(S(=O)(=O)C(F)(F)F)c4)cc3)CC2)C1 [Navitoclax] (partner 0.5 µM)
Summary of the method: as §1

CX-5461 + Linsitinib = compound: Cc1cnc(CNC(=O)c2c(=O)c3ccc(N4CCCN(C)CC4)nc3n3c2sc2ccccc23)cn1 [CX-5461] + C[C@]1(O)C[C@@H](c2nc(-c3ccc4ccc(-c5ccccc5)nc4c3)c3c(N)nccn32)C1 [Linsitinib] (partner 1 µM)
Summary of the method: as §1

Cell Line	relative viability (CX-5461 + Trametinib; first compound 0.01 µM)	relative viability (CX-5461 + Trametinib; first compound 0.03162 µM)	relative viability (CX-5461 + Trametinib; first compound 0.1 µM)	relative viability (CX-5461 + Trametinib; first compound 0.3162 µM)	relative viability (CX-5461 + Trametinib; first compound 1 µM)	relative viability (CX-5461 + Palbociclib; first compound 0.01 µM)	relative viability (CX-5461 + Palbociclib; first compound 0.03162 µM)	relative viability (CX-5461 + Palbociclib; first compound 0.1 µM)	relative viability (CX-5461 + Palbociclib; first compound 0.3162 µM)	relative viability (CX-5461 + Palbociclib; first compound 1 µM)	relative viability (CX-5461 + Navitoclax; first compound 0.01 µM)	relative viability (CX-5461 + Navitoclax; first compound 0.03162 µM)	relative viability (CX-5461 + Navitoclax; first compound 0.1 µM)	relative viability (CX-5461 + Navitoclax; first compound 0.3162 µM)	relative viability (CX-5461 + Navitoclax; first compound 1 µM)	relative viability (CX-5461 + Linsitinib; first compound 0.01 µM)	relative viability (CX-5461 + Linsitinib; first compound 0.03162 µM)	relative viability (CX-5461 + Linsitinib; first compound 0.1 µM)	relative viability (CX-5461 + Linsitinib; first compound 0.3162 µM)	relative viability (CX-5461 + Linsitinib; first compound 1 µM)
201T	0.706	0.73	0.693	0.75	0.721	0.35	0.344	0.363	0.355	0.35	1.18	1.22	1.21	1.18	1.19	1.05	0.995	1.03	1.02	0.993
A549											1.05	0.932		0.833	0.035	0.644	0.712	0.57	0.122	0.544
A-427	0.815	0.798	0.661	0.488	0.578	0.526	0.533	0.491	0.329	0.425	1.05	1.06	0.961		0.979	1.19	1.11	1.15		1.08
ABC-1						0.675		0.879	0.367	0.918						1.11	0.84		0.817	0.494
BEN	0.936	0.96	1.11	1.17	1.04	0.497	0.441	0.433	0.5	0.437	0.0792	0.0627	0.052	0.0668	0.066	1.01	0.967	1.01	0.827	0.727
CAL-12T	0.367	0.297	0.302	0.344	0.181	0.49	0.511	0.448	0.347	0.121	1.18	1.25		1.05	0.573	0.874	1.05	0.843	0.868	0.622
COR-L23	0.779	0.727	0.556	0.435	0.366	0.27	0.269	0.233	0.234	0.125	0.966	0.981	0.786	0.978	0.417	0.908	1.05	0.651	0.969	0.472
COR-L 105	0.448	0.47	0.429	0.388	0.352	0.414	0.403	0.393	0.319	0.357	0.891	0.734	0.768	0.801	0.689	1.05	0.93	1.08	0.852	0.59
Calu-6											0.659	0.872	0.743	0.852	0.157	1.02	0.952	0.986	0.827	0.51
ChaGo-K-1	0.875	0.978	0.874	0.922	0.849	0.965	0.95	0.927	0.933	0.899	1.32	0.947	0.752	0.413	0.618					
EBC-1											0.391	0.374	0.437	0.416	0.197	0.988	1.04	1.04	0.859	0.753
EKVX	0.389	0.306	0.482		0.265	0.399	0.396	0.406		0.298	1.13	1.03	0.958		0.764	1.19	1.02	0.962		0.962
EMC-BAC-2	0.91	0.888	0.629	0.45	0.429	0.515	0.515	0.468	0.433	0.412	1.17	1.29	1.21	1.13	1.14	0.843	0.914	0.828	0.824	0.815
EPLC-272H	0.27	0.308	0.268		0.318	0.309	0.322	0.324		0.352	1.28	1.3	1.11		1.13	1.3	1.27	1.09		1.06
H3255	0.614	0.639	0.671		0.558	0.282	0.353	0.299	0.305	0.302	0.626	0.484	0.533	0.273	0.397	1.04	1.01	0.935	0.735	0.988
HARA	0.545	0.772	0.573	0.661	0.644	0.24	0.227	0.331	0.228	0.253	1.11	1.23	1.17	1.08	1.12	0.953	1.04	0.98	0.772	0.966
HCC-15	0.419	0.31	0.383	0.376	0.34	0.705	0.759	0.808	0.725	0.592	0.725	0.773	0.713	0.717	0.656	0.906	0.904	0.933	0.909	0.834
HCC-44	0.921	1.25	1.11	1.14	1.05	0.906	1.05	0.969	0.926	0.953	0.931	1.08	1.09	0.983	1.02	0.734	0.681	0.685	0.676	0.644
HCC-78	0.76	0.82	0.88	0.753	0.71	0.503	0.453	0.444	0.508	0.429	0.984	0.839	0.724	0.543	0.769	0.566	0.548	0.502	0.437	0.398
